Laboratory results published in patent US10793892B2, “Method for detecting the presence of expanded spectrum β-lactamase-producing bacteria in a sample” (INSERM (INSTITUT NATIONAL DE LA SANTE ET DE LA RECHERCHE …, priority 2011, dated 2020).

Columns and labels:
[1] = system: C. freundii; assay: ESBL NDP test using cultured strains; assay type: biochemical, Citrobacter freundii; set-up: key: (+) and (−) referred to color change being, red to yellow or unchanged, respectively; (+) and (−) referred to color change being, red to yellow or unchanged, respectively
Protocol: (§1) Strains were isolated on Mueller-Hinton agar (Biorad, Marnes-la-Coquette, France) and incubated at 37° C. for 16 h to 24 h before performing the NDP rapid ESBL test as follows. One calibrated inoculated loop (10 μl) of the tested strain was resuspended in 150 μl of 20 mM Tris-HCl lysis buffer previously distributed in Microbead tubes (Ultraclean Microbial DNA isolation kit Bead Tubes, MO BIO Laboratories, Carlsbad, USA). Mechanical lysis of bacteria was performed by strong agitation of Microbead tubes using a vortex adapter (MO BIO Laboratories) for 30 min at room temperature. This bacterial suspension was centrifuged at 10,000×g at room temperature for 5 min. Thirty μl of the supernatant was mixed in a well of a 96-well tray with 100 μl of a 1 ml solution made of 3 mg of purified cefotaxime sodium salt (Sigma-Aldrich, Saint-Quentin-Fallavier, France) in a pH 7.8 phenol red solution. […]. The phenol red solution was made by taking 2 ml of a concentrated pH 8 phenol solution (made from a mixture of phenol red 0.5% in distilled water) to which 16.6 ml of distilled water was added. The pH value was then adjusted to a 7.8 value by adding drops of a 1 N NaOH solution. Mixture of the phenol red solution and the enzymatic suspension being tested was incubated at 37° C. for 30 min. Similarly, culture extracts were analyzed in wells containing cefotaxime and tazobactam (4 mg/ml). Other concentrations of tazobactam and other ß-lactamase inhibitors were tested giving less clear results (data not shown). […] This definition of test positivity will be applied throughout the study.

[2] = system: K. oxytoca; assay: Susceptibility testing, MIC by Etest; assay type: cell-based, Klebsiella oxytoca; conditions: K. oxytoca Wild-type penicillinase, n=1
Protocol: Susceptibility testing was performed by determining MIC values using the Etest® (AB bioMérieux; Solna, Sweden) on Mueller-Hinton agar plates at 37° C. and results were recorded according to US guidelines (CLSI), as updated in 2012 (2). The breakpoints for cefotaxime are susceptible (S)≤1 and resistant (R)≥4 μg/ml, and for ceftazidime S≤4 and R≥16 μg/ml.

[3] = system: E. coli; assay: ESBL NDP test using spiked blood cultures; assay type: biochemical, Escherichia coli; set-up: key: (+) and (−) referred to color change being, red to yellow or unchanged, respectively; (+) and (−) referred to color change being, red to yellow or unchanged, respectively
Protocol: as §1
Rapid detection of ESBL producers was attempted from spiked blood cultures which positivity was assessed using the BactAlert blood culture system (bioMérieux). […] This inoculum was reached after 24-48 h incubation in this BactAlert system. Strains were inoculated into blood culture system in presence of 10 ml of sterile blood. The panel of strains used for spiking blood cultures included either non-ESBL producers (n=24) or ESBL producers (n=64) (Table 4). Spiked blood cultures were made of 1×10^3 CFU of each strain and incubated 24 to 48 h before a positivity of the blood culture was detected by the BactAlert system. Then, 15 ml of spiked blood culture were transferred in a sterile tube and centrifuged at 1,500×g for 3 min to pellet the red blood cells. The supernatant was recovered and centrifuged for 15 min at 4,000×g to pellet the bacteria. The bacterial pellet was then resuspended in 500 μl of distilled water, transferred in 1.5 ml tube and thoroughly vortexed for 15 sec to lyse the remnant red blood cells and wash the bacterial pellet. After 5 min of centrifugation at 10,000×g, the bacterial pellet was resuspended in 150 μl of 20 mM Tris-HCl lysis buffer and distributed in beadtubes. The ESBL NDP test was then applied to this pellet as described above. Experiments were systematically performed in triplicate.

[4] = system: S. ficaria; assay: ESBL NDP test using spiked blood cultures; assay type: biochemical; set-up: key: (+) and (−) referred to color change being, red to yellow or unchanged, respectively; (+) and (−) referred to color change being, red to yellow or unchanged, respectively; conditions: S. ficaria CIP 104255, Wild-type
Protocol: (§2) Strains were isolated on Mueller-Hinton agar (Biorad, Marnes-la-Coquette, France) and incubated at 37° C. for 16 h to 24 h before performing the NDP rapid ESBL test as follows. One calibrated inoculated loop (10 μl) of the tested strain was resuspended in 150 μl of 20 mM Tris-HCl lysis buffer previously distributed in Microbead tubes (Ultraclean Microbial DNA isolation kit Bead Tubes, MO BIO Laboratories, Carlsbad, USA). Mechanical lysis of bacteria was performed by strong agitation of Microbead tubes using a vortex adapter (MO BIO Laboratories) for 30 min at room temperature. This bacterial suspension was centrifuged at 10,000×g at room temperature for 5 min. Thirty μl of the supernatant was mixed in a well of a 96-well tray with 100 μl of a 1 ml solution made of 3 mg of purified cefotaxime sodium salt (Sigma-Aldrich, Saint-Quentin-Fallavier, France) in a pH 7.8 phenol red solution. […]. […] Similarly, culture extracts were analyzed in wells containing cefotaxime and tazobactam (4 mg/ml). […]
(§3) Rapid detection of ESBL producers was attempted from spiked blood cultures which positivity was assessed using the BactAlert blood culture system (bioMérieux). […] Spiked blood cultures were made of 1×10^3 CFU of each strain and incubated 24 to 48 h before a positivity of the blood culture was detected by the BactAlert system. […]

[5] = system: S. thyphimurium; assay: ESBL NDP test using spiked blood cultures; assay type: biochemical; set-up: key: (+) and (−) referred to color change being, red to yellow or unchanged, respectively; (+) and (−) referred to color change being, red to yellow or unchanged, respectively; conditions: S. thyphimurium 10.81, CTX-M-1
Protocol: as §2, §3

[6] = system: P. mirabilis; assay: ESBL NDP test using spiked blood cultures; assay type: biochemical, Proteus mirabilis; set-up: key: (+) and (−) referred to color change being, red to yellow or unchanged, respectively; (+) and (−) referred to color change being, red to yellow or unchanged, respectively
Protocol: as §1
Rapid detection of ESBL producers was attempted from spiked blood cultures which positivity was assessed using the BactAlert blood culture system (bioMérieux). […] This inoculum was reached after 24-48 h incubation in this BactAlert system. Strains were inoculated into blood culture system in presence of 10 ml of sterile blood. […] Spiked blood cultures were made of 1×10^3 CFU of each strain and incubated 24 to 48 h before a positivity of the blood culture was detected by the BactAlert system. […]

CO/N=C(\C(=O)N[C@@H]1C(=O)N2C(C(=O)O)=C(COC(C)=O)CS[C@H]12)c1csc(N)n1 [CTX, cefotaxime]
ESBL NDP Test from: Colonies ([1]; C. freundii BG 1106 7767, Wild-type): −
Test (color change) ([1]; C. freundii CTX-M-15, n=3): +
Test (color change) ([1]; C. freundii TEM-3, n=1): +
Test (color change) ([1]; C. freundii Wild-type, chromosome-encoded cephalosporinase, n=1): −
MICs range [2]: 0.03 µg/mL
ESBL NDP Test from: Blood culture ([3]; E. coli 09.11, TEM-52): +
ESBL NDP Test from: Blood culture ([3]; E. coli 09.123, TEM-133): +
ESBL NDP Test from: Blood culture ([3]; E. coli 09.124, TEM-52): +
ESBL NDP Test from: Blood culture ([3]; E. coli 09.129, SHV-12): +
ESBL NDP Test from: Blood culture ([3]; E. coli 09.173, SHV-12): +
ESBL NDP Test from: Blood culture ([3]; E. coli 09.187, SHV-2a): +
ESBL NDP Test from: Blood culture ([3]; E. coli 09.193, SHV-12): +
ESBL NDP Test from: Blood culture ([3]; E. coli 09.207, SHV-2a): +
ESBL NDP Test from: Blood culture ([3]; E. coli 09.225, TEM-52): +
ESBL NDP Test from: Blood culture ([3]; E. coli 09.40, TEM-52): +
ESBL NDP Test from: Blood culture ([3]; E. coli 09.41, SHV-12): +
ESBL NDP Test from: Blood culture ([3]; E. coli 09.66, TEM-52): +
ESBL NDP Test from: Blood culture ([3]; E. coli 09.73, TEM-52): +
ESBL NDP Test from: Blood culture ([3]; E. coli 09.79, SHV-12): +
ESBL NDP Test from: Blood culture ([3]; E. coli 09.92, TEM-52): +
ESBL NDP Test from: Blood culture ([3]; E. coli 10.104, CTX-M-1): +
ESBL NDP Test from: Blood culture ([3]; E. coli 10.11, CTX-M-14): +
ESBL NDP Test from: Blood culture ([3]; E. coli 10.121, CTX-M-2): +
ESBL NDP Test from: Blood culture ([3]; E. coli 10.124, CTX-M-14): +
ESBL NDP Test from: Blood culture ([3]; E. coli 10.130, CTX-M-3): +
ESBL NDP Test from: Blood culture ([3]; E. coli 10.13, CTX-M-14): +
ESBL NDP Test from: Blood culture ([3]; E. coli 10.132, CTX-M-2): +
ESBL NDP Test from: Blood culture ([3]; E. coli 10.16, CTX-M-15): +
ESBL NDP Test from: Blood culture ([3]; E. coli 10.178, CTX-M-27): +
ESBL NDP Test from: Blood culture ([3]; E. coli 10.198, CTX-M-27): +
ESBL NDP Test from: Blood culture ([3]; E. coli 10.204, CTX-M-27): +
ESBL NDP Test from: Blood culture ([3]; E. coli 10.207, CTX-M-27): +
ESBL NDP Test from: Blood culture ([3]; E. coli 10.23, CTX-M-2): +
ESBL NDP Test from: Blood culture ([3]; E. coli 10.32, CTX-M-14): +
ESBL NDP Test from: Blood culture ([3]; E. coli 10.33, CTX-M-15): +
ESBL NDP Test from: Blood culture ([3]; E. coli 10.36, CTX-M-1): +
ESBL NDP Test from: Blood culture ([3]; E. coli 10.38, CTX-M-1): +
ESBL NDP Test from: Blood culture ([3]; E. coli 10.43, CTX-M-15): +
ESBL NDP Test from: Blood culture ([3]; E. coli 10.46, CTX-M-14): +
ESBL NDP Test from: Blood culture ([3]; E. coli 10.49, CTX-M-15): +
ESBL NDP Test from: Blood culture ([3]; E. coli 10.53, CTX-M-9): +
ESBL NDP Test from: Blood culture ([3]; E. coli 10.64, CTX-M-32): +
ESBL NDP Test from: Blood culture ([3]; E. coli 10.73, CTX-M-27): +
ESBL NDP Test from: Blood culture ([3]; E. coli 10.74, CTX-M-15): +
ESBL NDP Test from: Blood culture ([3]; E. coli 10.95, CTX-M-1): +
ESBL NDP Test from: Blood culture ([3]; E. coli (Belgium), ACC-1): −
ESBL NDP Test from: Blood culture ([3]; E. coli A7R5, SHV-3): +
ESBL NDP Test from: Blood culture ([3]; E. coli BG 1106 5698, Penicillinase): −
ESBL NDP Test from: Blood culture ([3]; E. coli BG 1106 6252, Wild-type): −
ESBL NDP Test from: Blood culture ([3]; E. coli BG 1106 6367, Wild-type): −
ESBL NDP Test from: Blood culture ([3]; E. coli BG 1106 7202, Penicillinase): −
ESBL NDP Test from: Blood culture ([3]; E. coli BG 1107 8873, Wild-type): −
ESBL NDP Test from: Blood culture ([3]; E. coli BG 1108 6157, Penicillinase): −
ESBL NDP Test from: Blood culture ([3]; E. coli C5O52, CTX-M-28): +
ESBL NDP Test from: Blood culture ([3]; E. coli Ec13 SYD, CMY-2): +
ESBL NDP Test from: Blood culture ([3]; E. coli GOU, DHA-1): −
ESBL NDP Test from: Blood culture ([3]; E. coli LOU, ACC-1): +
ESBL NDP Test from: Blood culture [4]: −
ESBL NDP Test from: Blood culture [5]: +
ESBL NDP Test from: Blood culture ([6]; P. mirabilis 09.128, TEM-52): +
ESBL NDP Test from: Blood culture ([6]; P. mirabilis 09.177, TEM-21): +
ESBL NDP Test from: Blood culture ([6]; P. mirabilis BIK, ACC-1): −
